The results in this text go back to ChEMBL document CHEMBL4699591, “An efficient synthesis tetrazole and oxadiazole analogues of novel 2'-deoxy-C-nucleosides and their antitumor activity” (2020).

Assay type in all cases: functional
The subject of experiment [1] is MDA-MB-231. Put plainly: Cytotoxicity against human MDA-MB-231 cells assessed as inhibition of cell growth at 10 uM incubated for 72 hrs by MTT assay relative to control.
The subject of experiment [2] is PANC-1. The experiment can be described thus: Cytotoxicity against human PANC-1 cells assessed as inhibition of cell growth at 2 uM incubated for 72 hrs by MTT assay relative to control.
The test system of experiment [3] is SK-OV-3. Put plainly: Cytotoxicity against human SK-OV-3 cells assessed as inhibition of cell growth at 2 uM incubated for 72 hrs by MTT assay relative to control.
In experiment [4] the test system is PC-3. The experiment can be described thus: Cytotoxicity against human PC-3 cells assessed as inhibition of cell growth at 2 uM incubated for 72 hrs by MTT assay relative to control. For orientation: Tetrazolium assays rely on reduction of a dye to a coloured formazan, in cell work by metabolically active cells.
Experiment [5] deals with MDA-MB-231. The experiment can be described thus: Cytotoxicity against human MDA-MB-231 cells assessed as inhibition of cell growth at 2 uM incubated for 72 hrs by MTT assay relative to control.
Experiment [6] deals with HeLa. The experiment can be described thus: Cytotoxicity against human HeLa cells assessed as inhibition of cell growth at 2 uM incubated for 72 hrs by MTT assay relative to control.

As usually defined, the inhibition is the share of the control response that was lost under treatment. On to `Cc1nnc([C@@H]2C[C@H](O)[C@@H](CO)O2)o1`, for which the inhibition at 10 µM in experiment [1] is 9%.

For the compound `COc1cccc2c1C(=O)c1c(O)c3c(c(O)c1C2=O)C[C@@](O)(C(=O)CO)C[C@@H]3O[C@H]1C[C@H](N)[C@H](O)[C@H](C)O1` [DOXORUBICIN], the inhibition at 2 µM in experiment [2], in experiment [3], in experiment [4], in experiment [5] and in experiment [6] was above 90% throughout.

As to `CC(C)c1nc([C@H]2C[C@H](O)[C@@H](CO)O2)no1`, in experiment [1], the inhibition at 10 µM is 9%.
